ChEMBL document CHEMBL1146723, “Synthesis of benzophenone oxime analogues as inhibitor of secretory phospholipase A(2) with anti-inflammatory activity” (2004)
“And” between values parts separate entries of the source, which are not always exact repeats. Equal values may be shown once. The source made the active and inactive calls. The rule behind the calls is not given here.

Assays:
Naja naja = experiment: (§1) Percentage inhibitory activity against Phospholipase A2 isolated from venom of Naja naja; details: concentration not given here
Trimeresurus malabaricus [1] = experiment: (§2) Percentage inhibitory activity against Phospholipase A2 isolated from venom of Trimeresurus malabaricus; details: concentration not given here
Daboia russellii = experiment: (§3) Percentage inhibitory activity against Phospholipase A2 isolated from venom of Vipera russelli; details: concentration not given here
Mus musculus = experiment: Antiinflammatory activity was evaluated for the increase in weight due to edema was calculated as edema ratio; assay type: functional
Trimeresurus malabaricus [2] = experiment: Percentage inhibitory activity against Phospholipase A2 isolated from venom of Trimeresurus malabaricus; NI = No inhibition
[3] = target: Phospholipase A2, major isoenzyme (Sus scrofa) (UniProt P00592); experiment: as §1; details: concentration not given here
Phospholipase A2, major isoenzyme (Sus scrofa), sequence (P00592 23-146 limits assumed): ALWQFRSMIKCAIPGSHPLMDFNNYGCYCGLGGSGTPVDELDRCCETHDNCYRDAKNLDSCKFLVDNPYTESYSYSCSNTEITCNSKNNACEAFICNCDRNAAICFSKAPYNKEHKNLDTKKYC

[4] = target: Phospholipase A2, major isoenzyme (Sus scrofa) (UniProt P00592); experiment: as §2; details: concentration not given here
[5] = target: Phospholipase A2, major isoenzyme (Sus scrofa) (UniProt P00592); experiment: as §3; details: Daboia russellii; concentration not given here

Compound	inhibition (Naja naja) [%]	inhibition (Trimeresurus malabaricus [1]) [%]	inhibition (Daboia russellii) [%]	Edema ratio (Mus musculus)	inhibition (Trimeresurus malabaricus [2])	inhibition [3] [%]	inhibition [4] [%]	inhibition [5] [%]
Cc1cccc(/C(=N/O)c2ccccc2)c1	82.9	81.6	79.2	102 and 110 and 101 and 103 and 109	–	–	–	–
COc1cccc(C(=NO)c2cccc(OC)c2)c1	36.9	–	58.7	136 and 142 and 181 and 147 and 149	inactive	–	–	–
COc1ccc(/C(=N/O)c2ccccc2)cc1	42.4	–	29.9	180 and 142 and 183 and 147 and 151	inactive	–	–	–
COc1ccc(/C(=N/O)c2cccc(Cl)c2)cc1OC	–	–	–	101 and 109 and 105 and 106 and 107	–	90.2	72.4	85.3
